# Counter-ions that a name gives are not always drawn.
# How the values were obtained:
# [1] = tested on: phospho(Ser63)-c-jun in HK-2 cells; assay: Cell-Based Assay for JNK Inhibitors (in-cell ELISA, phospho(Ser63)-c-jun after TNFα); details: HK-2 cells (human proximal tubule cells), 60 minutes compound, then 10 ng/mL TNFα for 30 minutes
# Experimental: Cell-Based Assay for JNK Inhibitors
# The cell-based assay employed the in-cell ELISA method to determine the ability of compounds to prevent the generation of phospho(Ser63)-c-jun in HK-2 cells (human proximal tubule cells) in response to stimulation with tumor necrosis factor α (TNFα). In brief, for quantification of phospho(Ser63)-c-jun, the cells (in 96-well format) were fixed and permeablized then incubated sequentially with a rabbit anti-phospho-c-jun First Antibody specific for the presence of the phospho-Ser63 epitope and a donkey anti-rabbit IgG Second Antibody linked to horseradish peroxidase (HRP) for colorimetric quantitation of binding. […] Blank wells received no TNFα stimulation or compound. Additional Control wells received TNFα stimulation, but no compound.
# Stock cultures of HK-2 cells (ATCC, Manassas, Va.) were grown under a 5% CO2/[…] atmosphere at 37 degrees C. in Keratinocyte-SFM medium (KSFM, Invitrogen, Grand Island, N.Y.) containing 5 μg/L epidermal growth factor and 5 mg/L bovine pituitary extract (both supplied with the medium), additionally supplemented with 10% (v/v) fetal calf serum (FCS; Invitrogen, Grand Island, N.Y.) and 1% (v/v) antibiotic-antimycotic (ABAM: Sigma, St. Louis, Mo.). For assays, cells were seeded in collagen coated 96-well polystyrene plates (BD Biosciences, Franklin Lakes, N.J.) at a density of 40,000 cells/well and cultured for 24 h in the same medium (100 μL/well) followed by a further 16-24 h in 100 μL of similar medium, but without FCS. […] Plates were then allowed to stand at room temperature for 20 minutes before being washed with 200 μL/well of PBS. (Further steps were performed immediately or the plates were stored at 4 degrees C. and the assay completed the next day.) To each well was added 100 μL 1% (v/v) TritonX-100 (Sigma, St. Louis, Mo.) in PBS followed by 20 minutes standing at room temperature, washing with 200 μL/well PBS, the addition of 100 μL/well of Quenching buffer (1% (v/v) hydrogen peroxide (Sigma, St. Louis, Mo.) and 0.1% (w/v) sodium azide (Fisher Scientific, Fair Lawn, N.J.)) in PBS and a further 20 minutes at room temperature. Plates were then washed twice with 200 μL/well of 0.1% (v/v) Tween-20 (Teknova, Hollister, Calif.) in PBS before addition of 200 μL/well of 2% BSA/0.1% Tween-20 in PBS and a further 1 hour at room temperature. […] After a further one hour, rabbit anti-phospho-c-jun-Ser63 is added directly to the solution in the Blank wells resulting in 1:250 dilution of this antibody. Plates were then placed on a slowly rotating platform at 4 degrees C. overnight. Wells were then washed thrice with 200 μL/well PBS/0.1% Tween-20. After addition of the third wash, the plates were placed on a slowly rotating platform for 15 minutes at room temperature. The final PBS/Tween20 wash was then replaced with 100 μL/well of donkey anti-rabbit HRP-labeled Second Antibody (Jackson ImmunoResearch Laboratory, West Grove, Pa.) diluted 1:10,000 in Antibody Dilution Buffer and the plates placed on a slowly rotating platform for 1 hour at room temperature. Wells were then washed four times with 200 μL/well PBS/0.1% Tween-20, including slow rotation for 30 minutes for the third wash and 10 minutes for the final wash. The wells were then washed once with 200 μL PBS without Tween-20. […] Absorbance was determined at a 450 nm wavelength using a spectrophotometer (Molecular Devices SpectraMax 250).
# JNK1 = JNK1 (Homo sapiens (Human), UniProt P45983); assay: In Vitro JNK1 Assay (TR-FRET, phosphorylation of GST-c-Jun); type: biochemical; details: 0.2 nM active JNK1 kinase, 26.7 nM GST-c-Jun, 2 μM ATP, 30 min at room temperature
# Sequence of JNK1 (P45983 whole entry): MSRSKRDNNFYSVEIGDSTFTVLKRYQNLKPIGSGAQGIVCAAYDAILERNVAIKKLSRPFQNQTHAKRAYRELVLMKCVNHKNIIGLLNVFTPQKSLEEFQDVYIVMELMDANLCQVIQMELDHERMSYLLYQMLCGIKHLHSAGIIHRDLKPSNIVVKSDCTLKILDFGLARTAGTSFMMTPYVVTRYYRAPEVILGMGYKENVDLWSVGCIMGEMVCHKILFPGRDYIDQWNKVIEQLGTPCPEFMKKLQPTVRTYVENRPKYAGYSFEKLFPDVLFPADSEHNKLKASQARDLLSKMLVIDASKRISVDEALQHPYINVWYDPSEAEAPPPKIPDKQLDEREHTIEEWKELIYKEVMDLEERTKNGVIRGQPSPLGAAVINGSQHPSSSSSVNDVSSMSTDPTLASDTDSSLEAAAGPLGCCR
# Method in brief: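 IC50 derived from percent inhibition across 10 serially diluted concentrations, with TR-FRET detection of phospho-c-Jun via an anti-phospho-c-Jun antibody after EDTA stop. Substrate was GST-c-Jun 1-79, reacted 30 min at room temperature in pH 7.0 HEPES buffer with MgCl2, DTT, vanadate and BSA.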
EC50 [1],IC50 (JNK1),SMILES
38 µM,0.039 µM,"COC(=O)c1c(CNC(=O)c2ccc(F)c(F)c2)c(=O)c2ccc(OC)cc2n1-c1ccccc1 [Example I-162, 7-Methoxy-3-[(3,4-difluorobenzoylamino)-methyl]-4-oxo-1-phenyl-1,4-dihydro-quinoline-2-carboxylic acid methyl ester]"
100 µM,0.12 µM,"Cn1cc(C(=O)NCc2cn(-c3ccccc3F)c3cc(F)ccc3c2=O)cn1 [Example I-104, 1-Methyl-1H-pyrazole-4-carboxylic acid [7-fluoro-1-(2-fluoro-phenyl)-4-oxo-1,4-dihydro-quinolin-3-ylmethyl]-amide]"
14 µM,0.098 µM,CN(C)C(=O)c1c(CNC(=O)c2cnc(N3CCC(CO)CC3)s2)c(=O)c2ccc(Cl)cc2n1-c1ccccc1 [Example I-26]
11 µM,0.14 µM,"CN(C)C(=O)c1c(CNC(=O)c2ccc(N3CCC(CO)CC3)nc2)c(=O)c2ccc(Cl)cc2n1-c1ccccc1 [Example I-24, 4-Hydroxymethyl-3,4,5,6-tetrahydro-2H-[1,2′]bipyridinyl-5′-carboxylic acid (7-chloro-2-dimethylcarbamoyl-4-oxo-1-phenyl-1,4-dihydro-quinolin-3-ylmethyl)-amide]"
3.8 µM,0.01 µM,"COC(=O)c1c(CNC(=O)c2ccc(C(N)=O)cc2)c(=O)c2ccc(Cl)cc2n1-c1ccccc1 [Example I-117, 3-[(4-Carbamoyl-benzoylamino)-methyl]-7-chloro-4-oxo-1-phenyl-1,4-dihydro-quinoline-2-carboxylic acid methyl ester]"
14 µM,0.029 µM,"COC(=O)c1c(CNC(=O)c2ccc(-c3nc(C)no3)cc2)c(=O)c2ccc(Cl)cc2n1-c1ccccc1 [Example I-126, 7-Chloro-3-{[4-(3-methyl-[1,2,4]oxadiazol-5-yl)-benzoylamino]-methyl}-4-oxo-1-phenyl-1,4-dihydro-quinoline-2-carboxylic acid methyl ester]"
9.8 µM,0.013 µM,"COC(=O)c1c(CNC(=O)c2cccnc2)c(=O)c2ccc(Cl)cc2n1-c1ccccc1 [Example I-139, 7-Chloro-4-oxo-1-phenyl-3-{[(pyridine-3-carbonyl)-amino]-methyl}-1,4-dihydro-quinoline-2-carboxylic acid methyl ester]"
2.7 µM,0.007 µM,"O=C(NCc1c(-c2ncco2)n(-c2ccccc2)c2cc(Cl)ccc2c1=O)c1ccnc(N2CCOCC2)c1 [Example I-2, N-(7-Chloro-2-oxazol-2-yl-4-oxo-1-phenyl-1,4-dihydro-quinolin-3-ylmethyl)-2-morpholin-4-yl-isonicotinamide]"
0.5 µM,0.001 µM,"O=C(NCc1c(-c2ncco2)n(-c2ccccc2)c2cc(Cl)ccc2c1=O)c1ccn(Cc2ccccc2)c(=O)c1 [Example I-1, 1-Benzyl-2-oxo-1,2-dihydro-pyridine-4-carboxylic acid (7-chloro-2-oxazol-2-yl-4-oxo-1-phenyl-1,4-dihydro-quinolin-3-ylmethyl)-amide]"
9.7 µM,0.091 µM,"CN(C)C(=O)c1c(CNC(=O)c2ccc(N3CCCCC3)nc2)c(=O)c2ccc(Cl)cc2n1-c1ccccc1 [Example I-28, 3,4,5,6-Tetrahydro-2H-[1,2′]bipyridinyl-5′-carboxylic acid (7-chloro-2-dimethylcarbamoyl-4-oxo-1-phenyl-1,4-dihydro-quinolin-3-ylmethyl)-amide trifluoroacetate salt]"
14 µM,0.047 µM,"COC(=O)c1c(CNC(=O)c2ccc(C(C)(C)C)cc2)c(=O)c2ccc(OC)cc2n1-c1ccccc1 [Example I-163, 3-[(4-tert-Butyl-benzoylamino)-methyl]-7-methoxy-4-oxo-1-phenyl-1,4-dihydro-quinoline-2-carboxylic acid methyl ester]"
4.2 µM,0.025 µM,"O=C(NCc1c(-c2ncco2)n(-c2ccccc2)c2cc(Cl)ccc2c1=O)c1ccc2c(c1)OCO2 [Example I-8, Benzo[1,3]dioxole-5-carboxylic acid (7-chloro-2-oxazol-2-yl-4-oxo-1-phenyl-1,4-dihydro-quinolin-3-ylmethyl)-amide]"
8.8 µM,0.048 µM,"COC(=O)c1c(CNC(=O)c2ccc(Cl)c(Cl)c2)c(=O)c2ccc(Cl)cc2n1-c1ccccc1 [Example I-144, 7-Chloro-3-[(3,4-dichloro-benzoylamino)-methyl]-4-oxo-1-phenyl-1,4-dihydro-quinoline-2-carboxylic acid methyl ester]"
2.5 µM,0.007 µM,"O=C(NCc1c(-c2ncco2)n(-c2ccccc2)c2ncccc2c1=O)c1ccc(N2CCC(CO)CC2)nc1 [Example I-12, 4-Hydroxymethyl-3,4,5,6-tetrahydro-2H-[1,2′]bipyridinyl-5′-carboxylic acid (2-oxazol-2-yl-4-oxo-1-phenyl-1,4-dihydro-[1,8]naphthyridin-3-ylmethyl)-amide]"
12 µM,0.081 µM,"O=C(NCc1cn(-c2ccccc2)c2cc(Cl)ccc2c1=O)c1ccc(N2CCN(CCO)CC2)nc1 [Example I-83, N-(7-Chloro-4-oxo-1-phenyl-1,4-dihydro-quinolin-3-ylmethyl)-6-[4-(2-hydroxy-ethyl)-piperazin-1-yl]-nicotinamide]"
35 µM,0.066 µM,"CN(C)C(=O)c1c(CNC(=O)c2ccc3ncsc3c2)c(=O)c2ccc(Cl)cc2n1-c1ccccc1 [Example I-16, 3-{[(Benzothiazole-6-carbonyl)-amino]-methyl}-7-chloro-4-oxo-1-phenyl-1,4-dihydro-quinoline-2-carboxylic acid dimethylamide]"
4.5 µM,0.014 µM,"O=C(NCc1c(-c2ncco2)n(-c2ccccc2)c2cc(Cl)ccc2c1=O)c1ccc(N2CCCCC2)nc1 [Example I-7, 3,4,5,6-Tetrahydro-2H-[1,2′]bipyridinyl-5′-carboxylic acid (7-chloro-2-oxazol-2-yl-4-oxo-1-phenyl-1,4-dihydro-quinolin-3-ylmethyl)-amide]"
40 µM,0.019 µM,"O=C(NCc1cn(-c2ccccc2)c2cc(Cl)ccc2c1=O)c1ccc(N2CCCCC2)nc1 [Example I-65, 3,4,5,6-Tetrahydro-2H-[1,2′]bipyridinyl-5′-carboxylic acid (7-chloro-4-oxo-1-phenyl-1,4-dihydro-quinolin-3-ylmethyl)-amide]"
10 µM,0.013 µM,"COC(=O)c1c(CNC(=O)c2cccc(F)c2)c(=O)c2ccc(Cl)cc2n1-c1ccccc1 [Example I-138, 7-Chloro-3-[(3-fluoro-benzoylamino)-methyl]-4-oxo-1-phenyl-1,4-dihydro-quinoline-2-carboxylic acid methyl ester]"
1 µM,0.039 µM,"COC(=O)c1c(CNC(=O)c2ccc(OC)c(OC)c2)c(=O)c2ccc(Cl)cc2n1-c1ccccc1 [Example I-143, 7-Chloro-3-[(3,4-dimethoxy-benzoylamino)-methyl]-4-oxo-1-phenyl-1,4-dihydro-quinoline-2-carboxylic acid methyl ester]"
7.7 µM,0.012 µM,"COC(=O)c1c(CNC(=O)c2ccccc2)c(=O)c2ccc(Cl)cc2n1-c1ccccc1 [Example I-150, 7-Chloro-3-[(benzoylamino)-methyl]-4-oxo-1-phenyl-1,4-dihydro-quinoline-2-carboxylic acid methyl ester]"
